The conditions of data set [1]: cited from earlier work.
The conditions of data set [2]: rat, in vivo, po, 0.139 mmol/kg.
Method: The test compounds and control compounds were each prepared in the same way and administered at a dose of 0.139 mmol/kg to rats, and after blood was collected at a predetermined time, plasma was separated. Analysis of the drug was performed using HPLC (XBridge column C18, Waters, mobile phase 0.1% formic acid:acetonitrile (30:70, %/%)) and MS/MS (ESI positive, MRM). Each commercial standard solution was mixed with rat blank plasma at a ratio of 9:1 to prepare standard solutions and calibrate at concentrations of 5, 50, 100, 500, 100 and 5,000 ng/ml. In addition, the QC sample was prepared at 100, 750 and 2,500 ng/ml concentrations by mixing rat blank plasma and QC standard solution in a 9:1 ratio. […] And the concentration of the active ingredient in rat plasma, that is, monomethyl fumarate, was quantified by applying the previously verified assay. For pharmacokinetic parameters, WinNonlin 5.2 (Pharsight, USA) program was used, and AUC0-t, AUC0-∞, Cmax, Tmax, and t1/2 were calculated by noncompartment modeling (best fit). Pharmacokinetic parameter results were expressed as mean (Mean) and standard deviation (SD), and statistically processed using the SPSS program (Statistical Package for the Social Sciences, 10.0K, USA).

Structures can show the parent of a compound that is named as a salt.

On to `COC(=O)/C=C/C(=O)OCCN1C(=O)CCC1=O` [ALKS8700, diroximel fumarate], for which the “safety in phase 1 clinical trial” value in data set [1] is given as “proven to be safe”. With `CCN(CC)C(=O)COC(=O)/C=C/C(=O)OC` [Reference Example 1, 2-(diethylamino)-2-oxoethyl Methyl Fumarate], in data set [2], the AUC0-24 worked out at 8.28 µg·h/mL. Further, in data set [1], the “safety in phase 1 clinical trial” value is on record as “proven to be safe”.

The record behind these values is US12049444B2, “Monomethyl fumarate precursor drug compounds and pharmaceutical compositions thereof” (AGATHONBIO CO., LTD., priority 2019, dated 2024).
